“Also recorded” adds a separate entry of the source.
What was measured:
[1] = test system: cells; conditions: CD-1, mouse
Method: Bioavailability of IPTG: Three CD-1 adult mice were gavaged with 25 μL of 1M IPTG per 10 g of body weight twice a day for 3 days. Animals were then sacrificed and major organs were harvested, mechanically homogenized, and steady state concentrations of IPTG in liver, kidney, skeletal muscle, and retina were determined using a beta-galacosidase assay^24. […] IPTG concentrations were tracked in various mouse tissues after a single 3-day IPTG gavage induction cycle. Data points represent mean+/−SD, n=3.

[2] = test system: ARPE-19 cells; assay: Luciferase regulation assay in transfected ARPE-19 cells with and without IPTG; format: cell-based, human
Method: All gene regulation assays start by transiently transfecting the cell line of choice with the appropriate plasmid. Media is supplemented with effector of varying concentration in wells (IPTG for lacI repressor experiments and doxycycline for tet repressor experiments) and specific experimental conditions are typically grown side by side in triplicate. Experimental measurement times varied depending upon cell confluence but occurred 24 to 72 hours after transfection.
Cells were lysed with Reporter Lysis Buffer (Promega) and 5 μL of whole cell lysate was added to 45 μL of luciferase assay buffer (Promega) containing luciferin in 384 well optical bottom plates (Corning). Plates were immediately loaded into the Tecan M1000 and luciferase signal was measured for each well over time. Peak luciferase signal values were used for quantification. […]
The plasmid containing the cassette controlling luciferase was transfected into human retinal pigment epithelium (ARPE-19) cells and grown with and without 2.5 mM IPTG. We measured approximately 20% basal expression with a 3.5-fold induction (p<0.05) (FIG. 1D). […]
Point mutations introduced in the repressor can decrease leakiness, increase dynamic range, or change/alter the affinity for effector molecules in bacterial cells. […] These point mutations were introduced into the repressor and induction measured in ARPE-19 cells. […]

Row | Molecule | gavage concentration of IPTG, fold less than concentrations toxic to cells [1] [fold] | steady state tissue concentrations of IPTG, fold less than concentrations toxic to cells ([1]; 3 days) [fold] | leakiness, dynamic range and maximal expression phenotype (in words) [2]
1 | CC(C)SC1OC(CO)C(O)C(O)C1O [IPTG, isopropyl β-D-1-thiogalactopyranoside] | 50 | 500 | –
2 | Q18M: lacI repressor point mutant in the DNA binding domain, residue 18 Q to M (protein, listed as Escherichia coli) MKPVTLYDVAEYAGVSYMTVSRVVNQASHVSAKTREKVEAAMAELNYIPNRVAQQLAGKQSLLIGVATSSLALHAPSQIVAAIKSRADQLGASVVVSMVERSGVEACKAAVHNLLAQRVSGLIINYPLDDQDAIAVEAACTNVPALFLDVSDQTPINSIIFSHEDGTRLGVEHLVALGHQQIALLAGPLSSVSARLRLAGWHKYLTRNQIQPIAEREGDWSAMSGFQQTMQMLNEGIVPTAMLVANDQMALGAMRAITESGLRVGADISVVGYDDTEDSSCYIPPLTTIKQDFRLLGQTSVDRLLQLSQGQAVKGNQLLPVSLVKRKTTLAPNTQTASPRALADSLMQLARQVSRLESGQ | – | – | deceased leakiness at the expense of maximal expression; also recorded: decreased leakiness as well as the commensurate decreased dynamic range
3 | F161W: lacI repressor effector pocket point mutant, residue 161 F to W (protein, UniProt P03023 1-360, looked up, variant F161W) Lactose operon repressor: MKPVTLYDVAEYAGVSYQTVSRVVNQASHVSAKTREKVEAAMAELNYIPNRVAQQLAGKQSLLIGVATSSLALHAPSQIVAAIKSRADQLGASVVVSMVERSGVEACKAAVHNLLAQRVSGLIINYPLDDQDAIAVEAACTNVPALFLDVSDQTPINSIIWSHEDGTRLGVEHLVALGHQQIALLAGPLSSVSARLRLAGWHKYLTRNQIQPIAEREGDWSAMSGFQQTMQMLNEGIVPTAMLVANDQMALGAMRAITESGLRVGADISVVGYDDTEDSSCYIPPLTTIKQDFRLLGQTSVDRLLQLSQGQAVKGNQLLPVSLVKRKTTLAPNTQTASPRALADSLMQLARQVSRLESGQ | – | – | decreased leakiness and increased dynamic range

From patent publication US10392622B2, “Compositions and methods for self-regulated inducible gene expression” (The Trustees of the University of Pennsylvania, priority 2014, dated 2019)
